Test [1] has as its system Leishmania tarentolae promastigotes (LtP). The test is described as follows: Viability of LtP treated with EO main components (resazurin). Type of test: cell-based. Here is the method:
LtP (200 μl, 2 × 10^6 parasites/ml) in YEM/phosphate‐buffered saline (PBS; 1:1 vol/vol, including antibiotics and 6 μM hemin) were distributed in 96‐well plates (nontreated plates). Compound stocks (in DMSO, max. 2% final concentration) were added, and five 1:3 serial dilutions were performed. Control rows with YEM/PBS (no activity) and with untreated LtP (vehicle, DMSO; 100% activity) were loaded, and the plate was incubated at 26 °C for 48 hr. Then resazurin (50 μl in PBS) was added (20 μM final concentration), and after 4 hr of incubation at 26 °C, the fluorescence of […] was measured at 560 nm excitation and 590 nm emission using a plate reader (PerkinElmer Enspire, Germany). Each compound was tested in triplicate.

Test [2] concerns the target T1, succinate:ubiquinone oxidoreductase (complex II), BH‐SMP (Bos taurus, UniProt P31039+P35720+Q3T189+Q95123).
T1 construct: from tissue; host or cells: bovine heart submitochondrial particles (BH-SMP)
The test is described as follows: Succinate:ubiquinone oxidoreductase (complex II) activity in BH‐SMP, DCPIP. Type of test: biochemical, bovine. The method, then: (§1) NADH:ubiquinone oxidoreductase (complex I) and succinate:ubiquinone oxidoreductase (complex II) activities were determined in 96 well‐plates using DCPIP as the electron acceptor. In each well, 200 μl of premix containing buffer (250 mM sucrose, 20 mM triethanolamine, and 1 mM EDTA, pH 7.4), DCPIP (60 μM), BSA (3.5 mg/ml for complex I and 1 mg/ml for complex II), idebenone (50 μM), and LtP‐Mit (complex I 0.17 μg/ml protein and complex II: 51 μg/ml protein) or BH‐SMP (complexes I and II: 8 μg/ml protein) were added. In addition, in the first wells, 97 μl of premix and 3 μl of EO compounds were added. Then six serial 1:3 dilutions were carried out transferring 100 μl in each step. The reaction was started by adding 50 μl of start‐mix per well, giving final concentrations of KCN (1 mM), for complex I:NADH (300 μM) or complex II:succinate (4 mM). After start of the reaction, images of the plates were recorded with a Canon EOS 300D camera (PLReader software, red–green channel) each 10 min for LtP‐Mit and 3 min for BH‐SMP (20 absorbance measurements). For each EO compound, percentage of inhibition was obtained with respect to controls (set to 100%) treated with maximum volume of vehicle (DMSO) introduced by test compound stocks.

The target in test [3] is T2, cytochrome bc 1 complex purified from Saccharomyces cerevisiae (Saccharomyces cerevisiae, UniProt P00163+P07143+P08067).
T2 construct: endogenous in cells; host or cells: Native complex purified in house from yeast submitochondrial particles (Triton X-100, hydroxyapatite)
Description: dUQH2:cyt c3+ oxidoreductase activity of isolated ScY‐bc 1. It counts as biochemical. Here is the method:
(§2) Cytochrome bc 1 complex was obtained from ScY‐SMP and BH‐SMP following published methodology (Geier, Schägger, Brandt, Colson, & von Jagow, 1992) with minor modifications as described below. SMP were resuspended in 1.1% Triton X‐100 and […] phenylmethylsulfonyl fluoride, pH 7.2, and centrifuged for 1 hr at 100,000 g. The bc 1 complex in the sediment was solubilized with 2.2% Triton X‐100, 600 mM NaCl, 10 mM KH2PO4, and 10 mM EDTA, pH 7.2. After centrifugation at 100,000 g for 1 hr, the supernatant was mixed with 50 ml of hydroxyapatite, equilibrated with 0.5% Triton X‐100, 250 mM NaCl, and 100 mM NaHPO4, pH 7.2. After washing the hydroxyapatite with 50 ml of equilibration buffer ([…], 100 mM NaHPO4, and 250 mM NaCl), the bc 1 complexes from ScY‐SMP and BH‐SMP (ScY‐bc 1 and BH‐bc 1, respectively) were eluted from hydroxyapatite with 250 mM KH2PO4 and 0.25% Triton X‐100, pH 7.2, and stored in liquid nitrogen.
(§3) To measure the ubiquinol:cyt c ^3+ oxidoreductase (complex III) activity, the reduction of 100 μM cyt c ^3+ at 550 nm using 540 nm as reference was monitored in the presence of the artificial substrate decylubiquinol (dUQH2, 75 μM), which was prepared from dUQ by reduction (Müllebner et al., 2010). The dUQH2:cyt c ^3+ oxidoreductase activities of 40 μg protein/ml of LtP‐Mit or 3.2 μg protein/ml of BH‐SMP were measured in 1 ml of buffer containing 250 mM sucrose, 50 mM KH2PO4, 0.2 mM EDTA (pH 7.2), 2 mM KCN, and 4 mM NaN3. Respective EO compounds were added 50 s after starting the time scan, and the reaction was started after 100 s with dUQH2 and was monitored for additional 150 s. The activity of noninhibited dUQH2:cyt c ^3+ oxidoreductase activity was measured in the presence of the vehicle for the respective inhibitor (DMSO). All inhibitor concentrations were tested in triplicate. The reduction rates for cyt c ^3+ were calculated from the time trace of the absorption difference at 550 − 540 nm (ε550–540 nm = 19 mmol^−1 L cm^−1). […] Three replicates were measured for each concentration. […]

Test [4] deals with T3, cytochrome bc 1 complex purified from Bos taurus (Bos taurus, UniProt P00125+P00157+P13272).
T3 construct: from tissue; host or cells: Native complex purified in house from bovine heart submitochondrial particles (Triton X-100, hydroxyapatite)
Description: dUQH2:cyt c3+ oxidoreductase activity of isolated BH‐bc 1. Type of test: biochemical. The method, then:
as §2, §3

In test [5] the target is T4, ubiquinol:cytochrome c oxidoreductase (complex III), BH‐SMP (Bos taurus, UniProt P00125+P00157+P13272).
T4 construct: from tissue; host or cells: bovine heart submitochondrial particles (BH-SMP)
Description: dUQH2:cyt c3+ oxidoreductase (complex III) activity in BH‐SMP. Type of test: biochemical, bovine. Here is the method: (§4) To measure the ubiquinol:cyt c ^3+ oxidoreductase (complex III) activity, the reduction of 100 μM cyt c ^3+ at 550 nm using 540 nm as reference was monitored in the presence of the artificial substrate decylubiquinol (dUQH2, 75 μM), which was prepared from dUQ by reduction (Müllebner et al., 2010). The dUQH2:cyt c ^3+ oxidoreductase activities of 40 μg protein/ml of LtP‐Mit or 3.2 μg protein/ml of BH‐SMP were measured in 1 ml of buffer containing 250 mM sucrose, 50 mM KH2PO4, 0.2 mM EDTA (pH 7.2), 2 mM KCN, and 4 mM NaN3. Respective EO compounds were added 50 s after starting the time scan, and the reaction was started after 100 s with dUQH2 and was monitored for additional 150 s. The activity of noninhibited dUQH2:cyt c ^3+ oxidoreductase activity was measured in the presence of the vehicle for the respective inhibitor (DMSO). All inhibitor concentrations were tested in triplicate. The reduction rates for cyt c ^3+ were calculated from the time trace of the absorption difference at 550 − 540 nm (ε550–540 nm = 19 mmol^−1 L cm^−1). Reduction rates in the presence of DMSO (maximum amount that was introduced by test compound stocks) were set to 100%, and the remaining activities in the presence of EO compounds were expressed in %. Three replicates were measured for each concentration.

Test [6] has as its system Leishmania amazonensis promastigotes (LaP). Set-up: method as in Monzote, Garcia, et al., 2014. As to conditions: ref Monzote, Garcia, et al., 2014, cited from earlier work; for IC50: previous study, read-out: IC50 against LaP.
The target in test [7] is NADH:ubiquinone oxidoreductase (complex I), LtP‐Mit (Leishmania tarentolae, UniProt A0A640KJ43+P15576+Q34939). The test is described as follows: NADH:ubiquinone oxidoreductase (complex I) activity in LtP‐Mit, DCPIP. The following applies: for IC50: read-out: IC50 Complex I LtP‐Mit. It counts as biochemical. The method, then: as §1
The target of test [8] is ubiquinol:cytochrome c oxidoreductase (complex III), LtP‐Mit (Leishmania tarentolae, UniProt A0A640KA58+A0A640KYQ2+P14548). Description: dUQH2:cyt c3+ oxidoreductase (complex III) activity in LtP‐Mit. It counts as biochemical. Here is the method:
as §4

[9] abbreviates: 48 hr at 26 °C, resazurin, n = 3, read-out: IC50, viability of LtP.
[10] abbreviates: read-out: IC50 Complex II BH‐SMP.
Setting [11] is: immediate inhibition, five experiments, read-out: IC50 ± SD ScY‐bc 1.
[12] abbreviates: immediate inhibition, five experiments, read-out: IC50 ± SD BH‐bc 1.
Where [13] appears, read: read-out: IC50 Complex III BH‐SMP.
Setting [14] is: mean ± SD, three experiments, read-out: IC50 Complex III LtP‐Mit.

Read-outs that look alike come from different tables or passages of the source.

As usually defined, the IC50 is the concentration that gives 50% inhibition.

T1 sequence (P31039 45-665 limits assumed): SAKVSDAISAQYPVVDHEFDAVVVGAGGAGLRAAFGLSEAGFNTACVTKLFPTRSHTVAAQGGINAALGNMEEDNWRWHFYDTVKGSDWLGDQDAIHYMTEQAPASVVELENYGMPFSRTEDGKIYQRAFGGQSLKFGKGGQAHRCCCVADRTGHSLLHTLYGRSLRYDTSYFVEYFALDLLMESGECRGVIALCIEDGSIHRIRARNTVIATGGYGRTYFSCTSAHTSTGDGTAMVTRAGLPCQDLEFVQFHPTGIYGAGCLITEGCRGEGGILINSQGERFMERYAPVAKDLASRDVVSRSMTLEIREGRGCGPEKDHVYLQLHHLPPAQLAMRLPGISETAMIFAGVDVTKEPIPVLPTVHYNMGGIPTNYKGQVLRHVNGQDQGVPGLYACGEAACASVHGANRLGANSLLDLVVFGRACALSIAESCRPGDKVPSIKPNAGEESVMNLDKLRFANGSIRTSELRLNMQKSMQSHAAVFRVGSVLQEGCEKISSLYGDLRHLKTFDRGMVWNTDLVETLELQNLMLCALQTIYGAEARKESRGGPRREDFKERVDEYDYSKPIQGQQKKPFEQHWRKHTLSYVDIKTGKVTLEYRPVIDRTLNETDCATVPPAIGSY
T1 sequence (Q3T189 29-280): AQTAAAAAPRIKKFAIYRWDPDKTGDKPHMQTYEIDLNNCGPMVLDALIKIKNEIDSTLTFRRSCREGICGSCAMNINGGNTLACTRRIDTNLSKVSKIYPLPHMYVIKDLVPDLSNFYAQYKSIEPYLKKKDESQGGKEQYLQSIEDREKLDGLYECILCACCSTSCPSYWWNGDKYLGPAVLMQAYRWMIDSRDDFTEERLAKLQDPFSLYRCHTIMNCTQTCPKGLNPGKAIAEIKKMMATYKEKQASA
T1 sequence (P35720 30-169): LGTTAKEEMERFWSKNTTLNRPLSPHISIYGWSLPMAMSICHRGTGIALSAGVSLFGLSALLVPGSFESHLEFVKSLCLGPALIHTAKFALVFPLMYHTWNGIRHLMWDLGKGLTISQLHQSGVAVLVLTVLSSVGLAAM
T1 sequence (Q95123 56-158): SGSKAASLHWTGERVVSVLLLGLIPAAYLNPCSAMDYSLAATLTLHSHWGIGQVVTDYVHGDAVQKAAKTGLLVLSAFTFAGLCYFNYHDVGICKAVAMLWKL
Sequence of ubiquinol:cytochrome c oxidoreductase (complex III), LtP‐Mit (P14548 whole entry): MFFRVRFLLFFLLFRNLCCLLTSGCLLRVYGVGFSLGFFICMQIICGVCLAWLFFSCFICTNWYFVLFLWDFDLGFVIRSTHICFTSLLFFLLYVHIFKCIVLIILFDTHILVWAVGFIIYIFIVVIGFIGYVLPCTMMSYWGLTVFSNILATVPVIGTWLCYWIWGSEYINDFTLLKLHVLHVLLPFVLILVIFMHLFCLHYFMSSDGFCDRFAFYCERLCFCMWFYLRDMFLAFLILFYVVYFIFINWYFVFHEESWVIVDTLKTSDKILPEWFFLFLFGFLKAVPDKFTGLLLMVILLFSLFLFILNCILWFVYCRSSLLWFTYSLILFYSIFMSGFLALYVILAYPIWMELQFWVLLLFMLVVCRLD
Sequence of ubiquinol:cytochrome c oxidoreductase (complex III), LtP‐Mit (A0A640KA58 entry or part of it): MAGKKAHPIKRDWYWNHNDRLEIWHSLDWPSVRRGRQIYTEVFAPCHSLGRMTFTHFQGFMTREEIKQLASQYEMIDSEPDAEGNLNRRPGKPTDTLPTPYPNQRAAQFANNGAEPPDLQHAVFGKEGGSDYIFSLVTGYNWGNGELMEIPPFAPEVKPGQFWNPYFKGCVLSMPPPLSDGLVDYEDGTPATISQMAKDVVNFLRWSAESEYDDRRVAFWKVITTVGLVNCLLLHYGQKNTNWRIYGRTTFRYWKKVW
Sequence of ubiquinol:cytochrome c oxidoreductase (complex III), LtP‐Mit (A0A640KYQ2 entry or part of it): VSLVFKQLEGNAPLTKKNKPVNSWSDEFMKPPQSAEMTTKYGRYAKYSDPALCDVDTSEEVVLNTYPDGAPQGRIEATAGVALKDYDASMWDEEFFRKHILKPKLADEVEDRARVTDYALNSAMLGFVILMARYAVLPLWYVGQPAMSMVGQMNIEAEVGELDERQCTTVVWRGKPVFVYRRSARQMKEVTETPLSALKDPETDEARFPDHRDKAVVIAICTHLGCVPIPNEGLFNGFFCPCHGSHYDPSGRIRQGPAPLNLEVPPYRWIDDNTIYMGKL
Sequence of NADH:ubiquinone oxidoreductase (complex I), LtP‐Mit (Q7M3U1 entry or part of it): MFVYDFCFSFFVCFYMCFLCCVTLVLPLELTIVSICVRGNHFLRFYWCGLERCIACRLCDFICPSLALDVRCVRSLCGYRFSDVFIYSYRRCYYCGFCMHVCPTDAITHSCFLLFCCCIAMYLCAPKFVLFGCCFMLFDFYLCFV
Sequence of NADH:ubiquinone oxidoreductase (complex I), LtP‐Mit (P15576 whole entry): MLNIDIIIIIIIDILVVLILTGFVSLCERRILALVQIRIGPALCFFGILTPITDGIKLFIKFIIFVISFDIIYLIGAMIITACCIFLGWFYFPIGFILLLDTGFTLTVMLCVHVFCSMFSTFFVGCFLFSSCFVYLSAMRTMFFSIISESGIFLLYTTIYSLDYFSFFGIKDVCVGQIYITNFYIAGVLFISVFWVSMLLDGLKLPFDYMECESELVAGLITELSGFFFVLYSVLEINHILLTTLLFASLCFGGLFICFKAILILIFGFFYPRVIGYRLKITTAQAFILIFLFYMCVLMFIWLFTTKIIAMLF
Sequence of NADH:ubiquinone oxidoreductase (complex I), LtP‐Mit (A0A640K8W3 entry or part of it, further chain): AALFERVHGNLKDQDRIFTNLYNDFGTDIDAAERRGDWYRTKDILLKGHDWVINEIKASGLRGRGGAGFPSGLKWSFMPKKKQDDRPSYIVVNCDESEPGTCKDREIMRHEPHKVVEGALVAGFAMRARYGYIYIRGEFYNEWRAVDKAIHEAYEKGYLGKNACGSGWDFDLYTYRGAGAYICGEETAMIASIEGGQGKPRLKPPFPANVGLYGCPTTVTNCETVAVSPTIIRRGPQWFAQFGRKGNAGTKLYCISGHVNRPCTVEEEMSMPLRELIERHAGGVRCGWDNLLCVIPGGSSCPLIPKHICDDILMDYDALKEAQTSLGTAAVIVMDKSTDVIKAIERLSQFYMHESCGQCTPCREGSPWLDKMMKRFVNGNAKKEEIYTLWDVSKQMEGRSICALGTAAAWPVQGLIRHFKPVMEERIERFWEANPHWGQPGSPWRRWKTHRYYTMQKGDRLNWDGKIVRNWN
Sequence of NADH:ubiquinone oxidoreductase (complex I), LtP‐Mit (P15583 whole entry, further chain): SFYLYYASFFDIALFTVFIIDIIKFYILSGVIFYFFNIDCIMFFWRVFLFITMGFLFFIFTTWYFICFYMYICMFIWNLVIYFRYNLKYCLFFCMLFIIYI
Sequence of NADH:ubiquinone oxidoreductase (complex I), LtP‐Mit (Q34939 entry or part of it): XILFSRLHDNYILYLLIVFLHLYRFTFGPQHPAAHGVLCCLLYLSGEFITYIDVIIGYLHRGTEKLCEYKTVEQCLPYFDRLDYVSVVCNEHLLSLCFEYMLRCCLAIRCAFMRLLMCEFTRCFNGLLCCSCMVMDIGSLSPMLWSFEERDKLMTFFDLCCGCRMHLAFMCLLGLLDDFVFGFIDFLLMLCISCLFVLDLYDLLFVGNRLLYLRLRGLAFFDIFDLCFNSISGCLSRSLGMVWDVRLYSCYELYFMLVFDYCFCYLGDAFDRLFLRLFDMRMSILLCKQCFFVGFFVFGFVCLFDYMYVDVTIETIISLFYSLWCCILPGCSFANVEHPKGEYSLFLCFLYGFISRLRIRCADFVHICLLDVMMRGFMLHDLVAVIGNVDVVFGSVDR
Sequence of NADH:ubiquinone oxidoreductase (complex I), LtP‐Mit (A0A640KJ43 entry or part of it): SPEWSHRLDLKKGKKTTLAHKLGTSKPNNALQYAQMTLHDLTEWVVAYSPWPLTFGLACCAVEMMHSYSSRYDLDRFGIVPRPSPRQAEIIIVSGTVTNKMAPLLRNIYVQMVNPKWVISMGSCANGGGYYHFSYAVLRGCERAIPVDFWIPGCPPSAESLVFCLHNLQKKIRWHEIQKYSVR

Take `CC(C)C12C=CC(C)(CC1)OO2` (stereo not drawn) [Asc, ascaridole]: the IC50 was 24.5 ± 3 µM in test [1] (48 h, read-out: IC50, viability of LtP); above 100 µM in test [2]; 675 ± 6 µM in test [3]; 381 ± 9 µM in test [4]; above 100 µM in test [5]; 0.6 ± 0.06 µM in test [6]. Further, the IC50 in test [7] is above 100 µM; in test [8] it was 131 ± 3.5 µM. The “% of inhibition at highest concentration tested, Complex II BH‐SMP” value (from here on “% of inhibition … Complex II BH‐SMP”) in test [2] is 21.2%. In addition, the “% of inhibition at highest concentration tested, Complex III BH‐SMP” value in test [5] was found to be 17.7%. Also, the “IC50 values for L. amazonensis in the presence of iron chelators” value in test [6] (with iron chelators) is given as “strongly increased”. For the same compound, the “% of inhibition at highest concentration tested, Complex I LtP‐Mit” value (from here on “% of inhibition … Complex I LtP‐Mit”) in test [7] was determined as 1.1%.
Turning to `Cc1ccc(C(C)C)cc1O` [Car, carvacrol], the IC50 in test [1] (setting [9]) is 11.6 ± 3.4 µM; in test [2] (setting [10]), above 100 µM; in test [3] (setting [11]), 941 ± 41 µM; in test [4] (setting [12]) it was 421 ± 4 µM; in test [5] (setting [13]), above 100 µM; in test [6], 101 ± 30 µM. In addition, the IC50 in test [7] was above 100 µM; in test [8] (setting [14]), 150 ± 2.3 µM. Besides, in test [2], the “% of inhibition … Complex II BH‐SMP” value came to 21.5%. Besides, the “% of inhibition at highest concentration tested, Complex III BH‐SMP” value in test [5] is reported as 22.8%. Besides, the “% of inhibition … Complex I LtP‐Mit” value in test [7] worked out at 16.4%.
Take `C=C1CC[C@H]2O[C@]2(C)CC[C@@H]2[C@@H]1CC2(C)C` [Caryo, caryophyllene oxide]: the IC50 was 36 ± 17.6 µM in test [1] (setting [9]); above 100 µM in test [2] (setting [10]); 179 ± 1 µM in test [3] (setting [11]); 197 ± 1 µM in test [4] (setting [12]); above 100 µM in test [5] (setting [13]); 22.2 ± 10.4 µM in test [6]. Moreover, the values for the IC50 in test [7] and in test [8] (setting [14]) were above 100 µM and 54.8 ± 4 µM, respectively. The “% of inhibition … Complex II BH‐SMP” value in test [2] came to 16.3%. The “% of inhibition … Complex I LtP‐Mit” value in test [7] is on record as 7.2%.

The values are drawn from article PMC6208284 (Phytotherapy Research, 2018).
